Columns and labels:
[1] = test system: murine model of HOCI-induced fibrosis; test: HOCI-induced murine fibrosis model: skin thickness; assay type: in vivo, mice; conditions: first experiment, 42 days; antibody 20 mg/kg s.c.; TD139 0.5 mg/kg intratracheal; vs HOCI group; FIG. 7A
Experimental: (§1) In a first experiment, control mice (n=12) received a daily intradermal injection of 300 μL of sterile phosphate buffer saline (PBS) for 5 consecutive days per week, for a duration of 42 days. HOCI alone and HOCI with antibody (HOCI-antibody) treated mice (n=12 per group) received a daily intradermal injection of 300 μL of HOCI for 5 consecutive days per week, for a duration of 42 days. Antibody-treated mice also received a subcutaneous injection of 20 mg/kg antibody, starting at day minus one and every 5 days between day 5 and day 40. Each antibody was solubilized in sterile, endotoxin-free PBS before injection. In a second experiment, the same protocol was applied, except that duration of the study was 63 days and antibodies were given every 7 days starting at day minus 1 until day 62.
(§2) Mice that received daily injection of HOCI were also treated by intratracheal instillation of 0.5 mg/kg of TD139 compound (HOCI-TD139), a small molecule Gal3 inhibitor. In a first experiment, the administrations started from day 21 and the compound was given every 3 days until day 39. In a second experiment, the administrations started from day 20 and the compound was given every 3 days until day 62. TD139 was initially dissolved in 100% DMSO then diluted 50-fold in endotoxin-free PBS before administration.
The evolution of skin thickness was monitored by using an external caliper, every seven days until sacrifice.

[2] = test system: murine model of HOCI-induced fibrosis; test: HOCI-induced murine fibrosis model: skin and lung collagen (Picrosirius red); assay type: in vivo, mice; conditions: first experiment; for lung collagen levels: day 42, FIG. 8A; for skin collagen levels: day 42, vs HOCI group, FIG. 8B
Experimental: as §1, §2
At the day of study termination of the first experiment (day 42), skin and lung samples were taken, formalin-fixed and processed to individual paraffin wax blocks. Sections of skin and lung were cut from the blocks and, after rehydration, stained with Picrosirius Red coloration according to the manufacturer's protocol. Subsequently, each slide was examined and remotely analyzed employing the web-based Image J software

[3] = test system: plasma IL-6; test: HOCI-induced murine fibrosis model: plasma IL-6 (MSD); assay type: in vivo, mice; conditions: first experiment, day 42; vs HOCI group; FIG. 9
Experimental: as §1, §2
(§3) In the first experiment, a mixed effect model with repeated measurements was performed on Control group, HOCI treated group, HOCI-antibody- and HOCI-TD139-treated groups. The impact of HOCI administration on plasma IL-6 and IL-5 levels was evaluated compared to the control group. The impact of antibody and TD139 treatments was compared to the HOCI group (FIG. 9). IL-6 and IL-5 were quantified by using the MSD technology from Mesoscale.

[4] = test system: plasma IL-5; test: HOCI-induced murine fibrosis model: plasma IL-5 (MSD); assay type: in vivo, mice; conditions: first experiment, day 42; vs HOCI group; FIG. 9
Experimental: as §1, §2, §3

[5] = test system: plasma Gal3; test: HOCI-induced murine fibrosis model: plasma Gal3 (ELISA); assay type: in vivo, mice; conditions: first experiment, day 42; FIG. 10
Experimental: as §1, §2
In the first experiment, the plasma levels of Gal3 were measured at day minus 1 (before antibody administration) and at termination day (day 42) using a mouse Galectin-3 DuoSet ELISA kit (R&D Systems, DY1197) according to the manufacturer's instructions. Plasma samples were diluted 1:200 in order to fit with the dynamic range of the assay.

[6] = test system: genes differentially regulated between HOCI group and control group in whole blood cells; test: HOCI-induced murine fibrosis model: whole blood RNA sequencing; assay type: in vivo, mice; conditions: of 510 genes differentially regulated HOCI vs control; day 42, whole blood
Experimental: as §1, §2
In the first experiment, global gene expression was examined at day 42 in whole blood cells by RNA sequencing.
Whole blood was collected in RNA protect tubes (Qiagen) and were processed for RNA extraction using the RNeasy Protect Animal blood kit with the optional on-column DNAse I digestion. Total RNA samples were quantified on Nanodrop 2000 (ThermoFisher Scientific™) and analyzed on Bioanalyzer (Agilent) using RNA 6000 Nano chips to determine RNA quality (RIN). Total RNA matching the QC criteria were included in the study. Purified RNA samples were used as input for the TruSeq Strand-specific RNA-seq (poly A selection and globin depletion) according to manufacturer's protocol (Illumina). […]
Raw reads were processed using the in-house RNAExp Expression pipeline 2.1 and the quality was assessed using FastQC tools. Then, reads were trimmed for adaptors using Cutadapt and trimmed reads were aligned to mouse mm39 reference genome using the STAR aligner. Aligned data were evaluated for quality using Samtools and Picard tools. Then, aligned reads per gene were quantified using FeatureCount. […] Read count were normalized by the variance stabilizing transformation vst function from DESeq2 R package.
55,416 genes were detected in the data. […] Genes differentially expressed between groups were determined using a linear model (ImFit function from limma R package) on vst transformation gene expression dataset. […]

[7] = test system: murine model of bleomycin-induced fibrosis; test: Bleomycin-induced murine lung fibrosis model: body weight and body weight metrics; assay type: in vivo, mice; conditions: for reduction of median Time to baseline (TTB): median TTB 20 days for untreated bleomycin group; for reduction of median Time to baseline (TTB) / reduction of median Time to weight growth (TWG): FIG. 13; for reduction of median Time to weight growth (TWG): median TWG 10 days for untreated bleomycin group
Experimental: (§4) Control bleomycin mice named ‘Bleo’ received an administration of 1.65 mg/kg bleomycin by the oropharyngeal route on Day 1. […] Antibody-treated mice also received an administration of 1.65 mg/kg bleomycin by the oropharyngeal route on Day 1 and a subcutaneous injection of 20 mg/kg antibody, starting on day minus one and on days 4, 8, 12, 16 and 20. Each antibody was solubilized in sterile, endotoxin-free PBS before injection. Mice that received bleomycin were also treated by oropharyngeal administration of 0.5 mg/kg of TD139 compound (Bleo-TD139), a small molecule Gal3 inhibitor, starting on day 12 and every 2 days until day 20. TD139 was initially dissolved in 100% DMSO.
Mice were weighed daily. Their growth curves are represented on FIG. 12. Control mice had normal growth with a mean percent increase of 6.4% of their initial body weight measured on day minus 1.
Body weight metrics were assessed by using two parameters called Time to weight growth (TWG) and Time to baseline (TTB), shown on FIG. 13. Time to weight growth corresponds to the point of inflection when mice show an ascending growth curve and start to regain weight within the course of the experiment. Time to baseline corresponds to the number of days required for mice to recover their initial body weight (day minus 1). The median TWG was 10 days for the untreated bleomycin group. […] TD139 compound had no efficacy on this parameter (p-value 0.53).

[8] = test system: murine model of bleomycin-induced fibrosis; test: Bleomycin-induced murine lung fibrosis model: Modified Ashcroft fibrosis score; assay type: in vivo, mice; conditions: for attenuation of lung fibrosis (overall): day 21, FIG. 15
Experimental: as §4
Mice were submitted for terminal euthanasia on day 21. The lungs were collected for histopathological examination and gravity inflation-fixed with 10% neutral buffered formalin (NBF) before being immersion fixed in NBF.
Sections were taken and then placed on three slides as indicated by the code numbers on FIG. 14.
Three longitudinal sections parallel to and bisecting the main stem bronchus were trimmed from the left lung and right caudal lung lobes and mounted in cassettes 01 and 02, respectively. The right cranial, middle and accessory lung lobes were sectioned longitudinally and mounted in cassette 03. All sections were stained with picrosirius red and scored in a blinded manner by a certified veterinary pathologist using the Modified Ashcroft fibrosis score (0-8), where “0” corresponds to “normality (no fibrosis) and “8” corresponds to the highest possible fibrosis score, as described by Hübner et al. (2008) but based on assessment across the whole section of lung.

[9] = test system: rat model of ARDS; test: Rat ARDS model (LPS challenge): neutrophils counts in BALF; assay type: in vivo; conditions: antibodies 14 mg/kg x3 prior to LPS; dexamethasone 10 mg/kg oral; vs LPS group; FIG. 16
Experimental: (§5) Positive control rats received 3 doses of sterile phosphate buffer at day minus 11, minus 6 and minus 1 prior LPS challenge (0.25 mg/kg by subcutaneous route at day 1). Negative control rats received one oral dose of Dexamethasone at 10 mg/kg (dissolved in 0.5% carboxymethyl cellulose in deionized water) 2 hours prior LPS challenge (0.25 mg/kg by subcutaneous route at day 1). LPS (lipopolysaccharide) causes an acute inflammatory response, whereas dexamethasone has anti-inflammatory effects thus being the reference treatment in this model.
(§6) Antibody-treated rats received 3 doses of antibodies (14 mg/kg) at day minus 11, minus 6 and minus 1 prior to LPS challenge (0.25 mg/kg by subcutaneous route at day 1). Each antibody was solubilized in sterile PBS before injection.
(§7) Control rats of the experiment received 3 doses of sterile phosphate buffer at day minus 11, minus 6 and minus 1 without LPS challenge at day 1.
(§8) The impact of anti-Gal3 antibody treatment in LPS challenged rats were evaluated by quantification of neutrophils in Bronchoalveolar Lavage Fluid and compared to the positive control group (LPS challenge with PBS treatment) (FIG. 16). […] Neutrophils numeration levels were decreased after treatment with anti-inflammatory dexamethasone.

[10] = test system: rat model of ARDS; test: Rat ARDS model (LPS challenge): total BALF protein (BCA assay); assay type: in vivo; conditions: antibodies 14 mg/kg x3 prior to LPS; dexamethasone 10 mg/kg oral; vs LPS group; FIG. 17
Experimental: as §5, §6, §7
as §8, with “proteins (by BCA assay)” for “neutrophils”, “BALF” for “Bronchoalveolar Lavage Fluid”, “17). The presence of protein in BALF reflects the damage to the air-blood barrier.” for “16).”, “Total BALF protein” for “Neutrophils”

[11] = test system: plasma TNF alpha; test: Rat ARDS model (LPS challenge): plasma TNF alpha (MSD); assay type: in vivo; conditions: 4 h following LPS challenge; vs LPS group; FIG. 18
Experimental: as §5, §6, §7
For all rats, plasma sampling was performed 4 h following LPS challenge.
The impact of anti-Gal3 antibody treatment in LPS challenged rats were evaluated on plasma cytokine levels, namely TNF alpha and KC-GRO cytokines, and compared to the positive control group (LPS challenge with PBS treatment) (respectively FIG. 18A and FIG. 18B). TNF alpha and KC-GRO were quantified by using the MSD technology from Mesoscale.

## OC[C@H]1O[C@@H](S[C@@H]2O[C@H](CO)[C@H](O)[C@H](n3cc(-c4cccc(F)c4)nn3)[C@H]2O)[C@H](O)[C@@H](n2cc(-c3cccc(F)c3)nn2)[C@H]1O [TD139, reference compound]
[1]
  HOCI-induced increase in skin thickness: lower decrease in skin thickness than with either antibody, reaching statistical significance only at days 28 and 42
[2]
  lung collagen levels: restored lung collagen levels to those of control mice
  skin collagen levels: significantly reduced
[3]
  plasma IL-6 levels: no activity
[4]
  plasma IL-5 levels: decreased significantly
[5]
  plasma Gal3 levels: restored the plasma Gal3 levels to values similar to those of the control group
[6]
  number of HOCI-dysregulated genes counteracted by treatment: 7 genes
  percentage of HOCI-dysregulated genes counteracted by treatment: 1.37%
[7]
  reduction of median Time to baseline (TTB): no efficacy
  reduction of median Time to weight growth (TWG): no efficacy
[7]; untreated bleomycin group +1.9%, control mice 6.4%
  mean percent weight increase on day 21 compared to day minus 1: 2.9%
[8]; day 21
  mice having a lung fibrosis score of 2 and 3: 50.6%
[8]; day 21, 49.3% for untreated bleomycin group
  mice having a lung fibrosis score of 4 and 5: 49.4%
[8]
  attenuation of lung fibrosis (overall): did not show any sign of anti-fibrotic efficacy

B1: D06: anti-Gal3 monoclonal antibody, IgG1 format; VH SEQ ID NO 38, VL SEQ ID NO 39 (antibody, V domains shown)
VH: EVQLVESGGSLVKPGGSLRLSCAASGFTFSNYNMNWVRQAPGKGLEWISSIYGSSRYIYYADFVKGRFTISRDNAKNSLYLQMNSLRAEDTAVYYCVRSGYGGMDVWGRGTLVTVSS
VL: QSVLTQPASVSGSPGQSITISCAGTSSDVGGYNGVSWYQQHPGKAPKLMIYYDSYRPSGVSNRFSGSKSGNTASLTISGLQAEDEADYYCSSGTDYSTRVFGGGTKLEIK
modifications: IgG1 constant region
[2]
  lung collagen levels: restored lung collagen levels to those of control mice
  skin collagen levels: non significant downward trend
[7]; bleomycin 1.65 mg/kg, antibody 20 mg/kg s.c.
  body weight status on day 21: full weight recovery
[7]; bleomycin 1.65 mg/kg, antibody 20 mg/kg s.c., FIG. 12
  recovery of body weight: more rapid recovery of body weight
[7]
  reduction of median Time to baseline (TTB): 5.5 days
  reduction of median Time to weight growth (TWG): 2.8 days
[8]; day 21, 7.4% in untreated bleomycin group
  frequency of animals with fibrosis score of 2: 30%
[8]; day 21, 87.6% in untreated bleomycin group
  frequency of animals with median fibrosis scores of 3 or 4: 64.5%
[8]
  attenuation of lung fibrosis (overall): clear evidence for attenuation of lung fibrosis
[9]
  neutrophils counts in BALF: also decreased
[10]
  total BALF protein: also decreased
[11]
  TNF alpha plasma levels: also decreased, displaying an intermediary profile

From patent publication US20250215091A1, “Anti-GAL3 Antibodies and Compositions” (Les Laboratoires Servier, priority 2022, published 2025)
